Results published in patent US7727977B2, “Kynurenine 3-hydroxylase inhibitors for the treatment of diabetes” (Merck Patent Gesellschaft mit beschrankter Haftung, priority 2003, dated 2010).
Marks after values point to notes of the source that are not given here.

Tests used:
kynurenine 3-hydroxylase = biological target: T1, kynurenine 3-hydroxylase (Rattus norvegicus, UniProt O88867); assay: Inhibitory activity on kynurenine 3-hydroxylase in rat liver homogenate; type: biochemical; settings: test concentration not given
T1 construct: incubating 10 μL of the homogenate with NADPH (2 mM), kynurenine (100 μM); from tissue; host or cells: rat liver (pellet of the homogenate, resuspended)
T1 sequence (O88867 whole entry): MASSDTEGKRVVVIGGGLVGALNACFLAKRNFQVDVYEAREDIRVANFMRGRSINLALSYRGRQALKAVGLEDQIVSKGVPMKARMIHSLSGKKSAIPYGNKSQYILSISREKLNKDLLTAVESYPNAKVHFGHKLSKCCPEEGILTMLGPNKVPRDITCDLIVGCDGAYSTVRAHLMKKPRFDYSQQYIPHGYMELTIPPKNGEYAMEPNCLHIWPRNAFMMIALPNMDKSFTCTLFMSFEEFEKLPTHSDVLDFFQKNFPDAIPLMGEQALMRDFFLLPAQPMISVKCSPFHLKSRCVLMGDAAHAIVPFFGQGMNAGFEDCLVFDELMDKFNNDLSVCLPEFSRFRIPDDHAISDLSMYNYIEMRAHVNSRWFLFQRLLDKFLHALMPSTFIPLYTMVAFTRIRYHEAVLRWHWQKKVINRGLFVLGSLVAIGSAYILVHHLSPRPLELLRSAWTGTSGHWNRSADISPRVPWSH
Description: Study of the Inhibitory Activity on Kynurenine 3-hydroxylase in Rat Liver
Rat livers are homogenised (1:8 weight/volume) in a buffer solution comprising: • 0.25 M sucrose • 50 mM pH 7.4 Tris; • 1 mM EDTA; and • 1 mM DTT.
The homogenates are centrifuged for 10 minutes at 12 000 rpm. The pellets are resuspended in the buffer solution described above (1:2 weight/volume).
The kynurenine 3-hydroxylase inhibition is determined by incubating 10 μL of the homogenate with NADPH (2 mM), kynurenine (100 μM) and various concentrations of the test compounds in a final volume of 100 μL at 37° C. for 5 minutes.
The compounds are tested at concentrations of between 1 μM and 300 μM. 3,4-Dimethoxy-N-[4-(3-nitrophenyl)thiazol-2-yl]benzenesulfonamide is a compound from the company Hoffmann-LaRoche (Basle, see J. Med. Chem., 40 (1997), 4738). 30H-Kynurenine was tested according to the protocol described by Carpendo et al. (Neuroscience, 61 (1994), 237-244).
Each of the experiments is repeated once and the IC50 values (in μmol/L) are calculated and given in the form of a mean of these two experiments.
Results concerning representative examples of family Ih are given in Table II below, in which is indicated the measurement of the percentage of remaining kynurenine 3-hydroxylase activity relative to the control (100%).

primary hepatocytes [1] = assay: Hepatic glucose production, basal lactate/pyruvate 2 hours, in primary hepatocytes; type: cell-based, Wistar rats; design: Hepatic glucose production: unit not given here; settings: for hepatic glucose production in vitro (result in words): primary rat hepatocytes, summary of Tables III and IV; for HGP % of control: Basal Lact/Pyr 2 hours
Description: (§1) Study of the Effect on Glucose Production by the Liver Materials and Method:
After washing in pH 7.4 PBS buffer, the cells are incubated for two hours at 37° C. in a Krebs buffer free of glucose and of insulin, containing lactate/pyruvate (10/1 mM) in the presence or absence of the test compounds. 10 μM MICA (5-methoxyindole-2-carboxylic acid) is used as reference substance. Two identical experiments are performed (Table III-2).
The protein assay is performed on the rest of the incubation medium via the Lowry method (BIO-RAD Dc protein assay, BIO-RAD 5000116).
(§2) The results are expressed as nmoles of glucose produced per […] of proteins. The statistical test used is the t test.

[2] = system: perfused isolated pancreases from N0 STZ diabetic rats; assay: Secretion of insulin and glucagon in perfused isolated pancreases from N0 STZ diabetic rats; type: cell-based; settings: absence of glucose, then 16.5 mM glucose; diabetic rat pancreas
Description: Study of the Effect on the Secretion of the Pancreatic Hormones Insulin and Glucagon, in N0STZ Diabetic Rats
The results are expressed as the mean±SEM (standard error of mean) of several experiments. The statistical test used is the Scheffé test.

primary hepatocytes [3] = assay: Hepatic glucose production stimulated by AMPc/DEX in primary hepatocytes; type: cell-based, Wistar rats
Description: as §1
The hepatocytes are isolated from the liver of Wistar rats fasted for 24 hours, according to the method described in Methods Cell Biol., 13 (1975), 29-83.
1) The hepatocytes are cultured for 16 to 18 hours in DMEM medium in the presence of AMP cyclase/dexamethasone at respective concentrations of 5×10^−5 M and 5×10^−7 M, with preincubation of the products at the test doses. After washing in pH 7.4 PBS buffer, the cells are incubated for three hours at 37° C. in a Krebs/AMPc/DEX buffer at the abovementioned concentrations. 0.1 μM insulin is used as reference substance. Two identical experiments are performed (Table III-1).
Quantification of the glucose is performed via a colorimetric method using glucose oxidase (IL test™ Glucose, Monarch 181633-80). The protein assay is performed on the rest of the incubation medium via the Lowry method (BIO-RAD Dc protein assay, BIO-RAD 5000116).
as §2

Remaining kynurenine 3-hydroxylase activity (% of control) (kynurenine 3-hydroxylase)	Compound	further results
30.0%	ethyl 2-(2′-naphthylthio)-4-phenyl-4-oxobutanoate [Ih-14]	–
50.5%	Cc1ccc(SC(CC(=O)c2ccc(Cl)cc2)C(=O)O)cc1 (stereo not drawn) [Ih-28, 2-(4′-methylphenylthio)-4-(4′-chlorophenyl)-4-oxobutanoic acid]	–
55.2%	CCOC(=O)C(CC(=O)c1ccccc1)Sc1ccc(OC)cc1 (stereo not drawn) [Ih-13, ethyl 2-(4′-methoxyphenylthio)-4-phenyl-4-oxobutanoate]	–
95.0%	CCOC(=O)C(CC(=O)c1ccccc1)SC1CCCCC1 (stereo not drawn) [Ih-15, ethyl 2-cyclohexylthio-4-phenyl-4-oxobutanoate]	–
63.3%	CCOC(=O)C(CC(=O)c1ccccc1)Sc1ccc(C)cc1 (stereo not drawn) [Ih-12, ethyl 2-(4′-methylphenylthio)-4-phenyl-4-oxobutanoate]	–
–	N[C@@H](Cc1c[nH]c2ccccc12)C(=O)O [Tryptophan, reference compound]	hepatic glucose production in vitro (result in words) (primary hepatocytes [1]): powerful inhibitors of hepatic glucose production in vitro; glucagon secretion (result in words) [2]: stimulates glucagon secretion in a glucose-dependent manner; insulin secretion (result in words) [2]: stimulates insulin secretion in a glucose-dependent manner
17.4%	COc1ccc(SC(CC(=O)c2ccc(OC)cc2)C(=O)O)cc1 (stereo not drawn) [Ih-21, 2-(4′-methoxyphenylthio)-4-(4′-methoxyphenyl)-4-oxobutanoic acid]	–
–	Nc1ccccc1C(=O)CC(N)C(=O)O (stereo not drawn) [Kynurenine]	hepatic glucose production in vitro (result in words) (primary hepatocytes [1]): powerful inhibitors of hepatic glucose production in vitro; glucagon secretion (result in words) [2]: stimulated; insulin secretion (result in words) [2]: stimulated
50.4%	O=C(CC(Sc1ccc(F)cc1)C(=O)O)c1ccccc1 (stereo not drawn) [Ih-3, 2-(4′-fluorophenylthio)-4-phenyl-4-oxobutanoic acid]	–
45.4%	Cc1ccc(SC(CC(=O)c2ccccc2)C(=O)O)cc1 (stereo not drawn) [Ih-5, 2-(4′-methylphenylthio)-4-phenyl-4-oxobutanoic acid]	–
23.2%	2-(2′-naphthylthio)-4-phenyl-4-oxobutanoic acid [Ih-1]	HGP % of control (primary hepatocytes [1]; 1 μM): 10 % of control; HGP % of control (primary hepatocytes [1]; 10 μM): 127 % of control; HGP % of control (primary hepatocytes [1]; 100 μM): 95 % of control; hepatic glucose production in vitro (result in words) (primary hepatocytes [1]): powerful inhibitors of hepatic glucose production in vitro; HGP % of control (primary hepatocytes [3]; 1 μM): 103 % of control; HGP % of control (primary hepatocytes [3]; 10 μM): 83 % of control; HGP % of control (primary hepatocytes [3]; 100 μM): 15 % of control
24.3%	2-(2′-naphthylthio)-4-(4′-chlorophenyl)-4-oxobutanoic acid [Ih-30]	–
38.1%	COc1ccc(C(=O)CC(SC2CCCCC2)C(=O)O)cc1 (stereo not drawn) [Ih-23, 2-cyclohexylthio-4-(4′-methoxyphenyl)-4-oxobutanoic acid]	–
–	O=C(C[C@@H](Cc1ccccc1)C(=O)O)c1ccc(Cl)c(Cl)c1 (racemic) [Compound j, (R,S)-2-benzyl-4-(3′,4′-dichlorophenyl)-4-oxobutanoic acid]	Inhibition of hepatic glucose production (primary hepatocytes [1]; 1 μM): 30** %; Inhibition of hepatic glucose production (primary hepatocytes [1]; 10 μM): 51** %; Inhibition of hepatic glucose production (primary hepatocytes [1]; 100 μM): 65** %; hepatic glucose production in vitro (result in words) (primary hepatocytes [1]): powerful inhibitors of hepatic glucose production in vitro
6.6%	COc1ccc(C(=O)CC(Sc2ccc(F)cc2)C(=O)O)cc1 (stereo not drawn) [Ih-18, 2-(4′-fluorophenylthio)-4-(4′-methoxyphenyl)-4-oxobutanoic acid]	–
81.3%	O=C(CC(SC1CCCCC1)C(=O)O)c1ccccc1 (stereo not drawn) [Ih-7, 2-cyclohexylthio-4-phenyl-4-oxobutanoic acid]	–
–	COc1ccc(S(=O)(=O)Nc2nc(-c3cccc([N+](=O)[O-])c3)cs2)cc1OC [Compound k, 3,4-dimethoxy-N-[4-(3-nitrophenyl)thiazol-2-yl]benzenesulfonamide, reference compound]	glucagon secretion (result in words) [2]: stimulation; insulin secretion (result in words) [2]: stimulation
–	O=C(O)c1cc(=O)c2ccccc2[nH]1 [Kynurenic acid]	glucagon secretion (result in words) [2]: stimulates; insulin secretion (result in words) [2]: stimulates the secretion of insulin
66.7%	CCOC(=O)C(CC(=O)c1ccccc1)Sc1ccc(F)cc1 (stereo not drawn) [Ih-10, ethyl 2-(4′-fluorophenylthio)-4-phenyl-4-oxobutanoate]	–
55.5%	O=C(CC(Sc1ccc(F)cc1)C(=O)O)c1ccc(Cl)cc1 (stereo not drawn) [Ih-26, 2-(4′-fluorophenylthio)-4-(4′-chlorophenyl)-4-oxobutanoic acid]	–
–	O=C(C[C@@H](Cc1ccccc1)C(=O)O)c1ccc(F)cc1 [Compound i, (R)-2-benzyl-4-(4-fluorophenyl)-4-oxobutanoic acid]	Hepatic glucose production (primary hepatocytes [1]; 1 μM): 88 ± 7; Hepatic glucose production (primary hepatocytes [1]; 10 μM): 73 ± 4; Hepatic glucose production (primary hepatocytes [1]; 100 μM): 39 ± 3; hepatic glucose production in vitro (result in words) (primary hepatocytes [1]): powerful inhibitors of hepatic glucose production in vitro; glucagon secretion (result in words) [2]: stimulation; insulin secretion (result in words) [2]: stimulation
13.3%	COc1ccc(C(=O)CC(Sc2ccc(C)cc2)C(=O)O)cc1 (stereo not drawn) [Ih-20, 2-(4′-methylphenylthio)-4-(4′-methoxyphenyl)-4-oxobutanoic acid]	–

Compound	Remaining kynurenine 3-hydroxylase activity (% of control) (kynurenine 3-hydroxylase)	further results
O=C(CC(Sc1ccc(Cl)cc1)C(=O)O)c1ccccc1 (stereo not drawn) [Ih-4, 2-(4′-chlorophenylthio)-4-phenyl-4-oxobutanoic acid]	34.8%	–
O=C(CC(SCc1ccccc1)C(=O)O)c1ccccc1 (stereo not drawn) [Ih-8, 2-benzylthio-4-phenyl-4-oxobutanoic acid]	68.6%	–
O=C(CC(Sc1ccc(Cl)cc1)C(=O)O)c1ccc(Cl)cc1 (stereo not drawn) [Ih-27, 2-(4′-chlorophenylthio)-4-(4′-chlorophenyl)-4-oxobutanoic acid]	34.9%	–
CCOC(=O)C(CC(=O)c1ccccc1)Sc1ccccc1 (stereo not drawn) [Ih-9, ethyl 2-phenylthio-4-phenyl-4-oxobutanoate]	80.8%	–
CCOC(=O)C(CC(=O)c1ccccc1)SCc1ccccc1 (stereo not drawn) [Ih-16, ethyl 2-benzylthio-4-phenyl-4-oxobutanoate]	84.4%	–
COc1ccc(C(=O)CC(Sc2ccccc2)C(=O)O)cc1 (stereo not drawn) [Ih-17, 2-phenylthio-4-(4′-methoxyphenyl)-4-oxobutanoic acid]	16.0%	–
O=C(CC(Sc1ccccc1)C(=O)O)c1ccccc1 (stereo not drawn) [Ih-2, 2-phenylthio-4-phenyl-4-oxobutanoic acid]	70.4%	–
COc1ccc(C(=O)CC(Sc2ccc(Cl)cc2)C(=O)O)cc1 (stereo not drawn) [Ih-19, 2-(4′-chlorophenylthio)-4-(4′-methoxyphenyl)-4-oxobutanoic acid]	4.1%	–
O=C(CC(Sc1ccccc1)C(=O)O)c1ccc(Cl)cc1 (stereo not drawn) [Ih-25, 2-phenylthio-4-(4′-chlorophenyl)-4-oxobutanoic acid]	67.6%	–
CCOC(=O)C(CC(=O)c1ccccc1)Sc1ccc(Cl)cc1 (stereo not drawn) [Ih-11, ethyl 2-(4′-chlorophenylthio)-4-phenyl-4-oxobutanoate]	44.6%	–
COc1ccc(C(=O)CC(SCc2ccccc2)C(=O)O)cc1 (stereo not drawn) [Ih-24, 2-benzylthio-4-(4′-methoxyphenyl)-4-oxobutanoic acid]	18.9%	–
